{
  "source": "the supplement of paper PMC10307832",
  "assay_in_all_cases": "relative viability (nuclei count vs DMSO), 5 days (fraction); higher = more cells survive",
  "key": {"Entinostat + Decitabine": {"compound": "Nc1ccccc1NC(=O)c1ccc(CNC(=O)OCc2cccnc2)cc1 [Entinostat] + Nc1ncn([C@H]2C[C@H](O)[C@@H](CO)O2)c(=O)n1 [Decitabine] (partner 2 µM)", "procedure,_shortened": "(§1)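 Each reported value is a median over duplicate plates. It expresses relative viability: treated-well nuclei count divided by vehicle-well nuclei count. Lung cancer cell lines in 1536-well plates were dosed by pin tool a day after seeding, alone with one drug or with a fixed anchor-drug dose plus five library-drug doses (not always all listed) in √10 steps, and nuclei were counted after 5 days.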"}, "[1]": {"compound": "C1COCCN1C2=NC(=NC3=C2OC4=C3C=CC=N4)C5=CC(=CC=C5)NC(=O)C6=CN=C(C=C6)N + CCNC(=O)c1noc(-c2cc(C(C)C)c(O)cc2O)c1-c1ccc(CN2CCOCC2)cc1 [Luminespib] (partner 0.01 µM)", "procedure,_shortened": "as §1"}, "SGI-1776 + Pemetrexed": {"compound": "CN1CCC(CNc2ccc3ncc(-c4cccc(OC(F)(F)F)c4)n3n2)CC1 [SGI-1776] + Nc1nc2[nH]cc(CCc3ccc(C(=O)N[C@@H](CCC(=O)O)C(=O)O)cc3)c2c(=O)[nH]1 [Pemetrexed] (partner 0.2 µM)", "procedure,_shortened": "as §1"}, "SGI-1776 + Lapatinib": {"compound": "CN1CCC(CNc2ccc3ncc(-c4cccc(OC(F)(F)F)c4)n3n2)CC1 [SGI-1776] + CS(=O)(=O)CCNCc1ccc(-c2ccc3ncnc(Nc4ccc(OCc5cccc(F)c5)c(Cl)c4)c3c2)o1 [Lapatinib] (partner 2 µM)", "procedure,_shortened": "as §1"}},
  "data": [
    {"cell line": "UMC-11", "values": [
      {"measurement": "relative viability", "setting": "Entinostat + Decitabine; first compound 0.02 µM", "value": 0.65},
      {"measurement": "relative viability", "setting": "Entinostat + Decitabine; first compound 0.06325 µM", "value": 0.681},
      {"measurement": "relative viability", "setting": "Entinostat + Decitabine; first compound 0.2 µM", "value": 0.506},
      {"measurement": "relative viability", "setting": "Entinostat + Decitabine; first compound 0.6325 µM", "value": 0.386},
      {"measurement": "relative viability", "setting": "Entinostat + Decitabine; first compound 2 µM", "value": 0.725},
      {"measurement": "relative viability", "setting": "[1]; first compound 0.02 µM", "value": 1.13},
      {"measurement": "relative viability", "setting": "[1]; first compound 0.06325 µM", "value": 1.07},
      {"measurement": "relative viability", "setting": "[1]; first compound 0.2 µM", "value": 1.02},
      {"measurement": "relative viability", "setting": "[1]; first compound 0.6325 µM", "value": 1.07},
      {"measurement": "relative viability", "setting": "[1]; first compound 2 µM", "value": 0.628},
      {"measurement": "relative viability", "setting": "SGI-1776 + Pemetrexed; first compound 0.08 µM", "value": 0.828},
      {"measurement": "relative viability", "setting": "SGI-1776 + Pemetrexed; first compound 0.8 µM", "value": 0.864},
      {"measurement": "relative viability", "setting": "SGI-1776 + Pemetrexed; first compound 2.53 µM", "value": 0.699},
      {"measurement": "relative viability", "setting": "SGI-1776 + Pemetrexed; first compound 8 µM", "value": 0.558},
      {"measurement": "relative viability", "setting": "SGI-1776 + Lapatinib; first compound 0.08 µM", "value": 0.907},
      {"measurement": "relative viability", "setting": "SGI-1776 + Lapatinib; first compound 0.8 µM", "value": 1.12},
      {"measurement": "relative viability", "setting": "SGI-1776 + Lapatinib; first compound 2.53 µM", "value": 1.11},
      {"measurement": "relative viability", "setting": "SGI-1776 + Lapatinib; first compound 8 µM", "value": 0.644}
    ]}
  ]
}
